Laboratory results: ChEMBL document CHEMBL1201862, “PubChem BioAssay data set” (2004)
Active and inactive are the calls of the source.

Legend:
[1] = molecular target: T1, High affinity choline transporter 1 (Homo sapiens, UniProt Q9GZV3); assay: human choline transporter blockers, potency – cell-based, 5-point CRC, membrane potential dye, dose response (AID 504840); type: functional
T1 sequence (Q9GZV3 whole entry): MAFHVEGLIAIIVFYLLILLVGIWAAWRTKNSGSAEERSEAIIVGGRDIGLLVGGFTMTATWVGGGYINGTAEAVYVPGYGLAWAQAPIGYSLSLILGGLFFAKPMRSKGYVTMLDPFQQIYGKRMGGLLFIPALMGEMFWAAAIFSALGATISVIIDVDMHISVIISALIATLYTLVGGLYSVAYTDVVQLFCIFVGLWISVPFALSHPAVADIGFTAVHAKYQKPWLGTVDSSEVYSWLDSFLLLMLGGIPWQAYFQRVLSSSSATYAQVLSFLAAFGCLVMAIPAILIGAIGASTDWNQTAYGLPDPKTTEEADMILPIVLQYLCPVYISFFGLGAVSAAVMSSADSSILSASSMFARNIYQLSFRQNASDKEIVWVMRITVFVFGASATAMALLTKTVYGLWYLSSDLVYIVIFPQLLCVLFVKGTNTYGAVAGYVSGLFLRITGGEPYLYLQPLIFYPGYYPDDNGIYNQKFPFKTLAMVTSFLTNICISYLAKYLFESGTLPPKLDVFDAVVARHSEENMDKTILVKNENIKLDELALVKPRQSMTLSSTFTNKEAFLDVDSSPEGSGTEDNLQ

[2] = HEK-293T cell viability reduction – luminescence, B-cell screen hits, cytotoxicity control for BCR NF-kB inhibitor project, dose response (AID 489021); type: functional, cell-based;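 further: HEK-293T cells carrying an NF-kB luciferase reporter; cells exposed to compound for about 14 hours before viability readout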
H9c2 = assay: cells; type: functional, cell-based; settings: Rattus norvegicus, H9c2, Myocardium
[3] = molecular target: Heat shock protein HSP 90-alpha (Homo sapiens, UniProt P07900); type: functional, organism-based
[4] = molecular target: DNA dC->dU-editing enzyme APOBEC-3A (Homo sapiens, UniProt P31941); assay: Dose Response confirmation of small molecule APOBEC3A DNA Deaminase Inhibitors via a fluorescence-based single-stranded DNA deaminase assay. [Related pubchem assays (depositor defined):AID493011, AID493024]; type: functional
Sequence of DNA dC->dU-editing enzyme APOBEC-3A (P31941 whole entry): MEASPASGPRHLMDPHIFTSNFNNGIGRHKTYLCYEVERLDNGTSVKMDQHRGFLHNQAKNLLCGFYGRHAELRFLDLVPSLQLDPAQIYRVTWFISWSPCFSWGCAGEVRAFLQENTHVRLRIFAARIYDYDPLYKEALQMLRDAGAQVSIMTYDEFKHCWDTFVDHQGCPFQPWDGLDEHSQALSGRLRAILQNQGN

[5] = molecular target: DNA dC->dU-editing enzyme APOBEC-3G (Homo sapiens, UniProt Q9HC16); type: functional;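 further: Dose-response counterscreen measuring inhibition of APOBEC3G DNA deaminase activity, run while confirming APOBEC3A inhibitors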
Sequence of DNA dC->dU-editing enzyme APOBEC-3G (Q9HC16 whole entry): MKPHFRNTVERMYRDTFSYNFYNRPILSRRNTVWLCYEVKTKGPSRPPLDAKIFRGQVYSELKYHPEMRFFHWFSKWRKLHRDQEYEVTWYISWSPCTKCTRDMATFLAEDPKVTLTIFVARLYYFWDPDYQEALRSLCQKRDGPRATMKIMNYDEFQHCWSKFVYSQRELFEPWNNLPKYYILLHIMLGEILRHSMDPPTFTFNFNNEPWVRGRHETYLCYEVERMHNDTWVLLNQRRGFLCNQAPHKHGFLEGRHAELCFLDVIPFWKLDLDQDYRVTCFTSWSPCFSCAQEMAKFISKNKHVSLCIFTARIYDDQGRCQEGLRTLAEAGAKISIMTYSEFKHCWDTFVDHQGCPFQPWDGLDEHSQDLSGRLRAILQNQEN

[6] = HepG2 cell cytotoxicity, dose response, cytotoxicity control for non-replicating M. tuberculosis project (AID 489018); type: functional; settings: Mycobacterium tuberculosis
[7] = THP-1 cell cytotoxicity, dose response, cytotoxicity control for non-replicating M. tuberculosis project (AID 489025); type: functional
cells = type: functional
[8] = microbe, parasite or virus in culture; type: functional; settings: Mycobacterium tuberculosis
[9] = nonselective StAR promoter luciferase inhibitors – cell-based, luminescence, luciferase reporter, counter-screen for LRH-1 inverse agonist project, dose response (AID 651969); type: functional
[10] = molecular target: Nuclear receptor subfamily 5 group A member 2 (Homo sapiens, UniProt O00482); type: functional, cell-based;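 further: HEK293T cells transfected with LRH-1 and a StAR promoter luciferase reporter; potency for inhibitors that lower LRH-1 driven reporter light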
Sequence of Nuclear receptor subfamily 5 group A member 2 (O00482 whole entry): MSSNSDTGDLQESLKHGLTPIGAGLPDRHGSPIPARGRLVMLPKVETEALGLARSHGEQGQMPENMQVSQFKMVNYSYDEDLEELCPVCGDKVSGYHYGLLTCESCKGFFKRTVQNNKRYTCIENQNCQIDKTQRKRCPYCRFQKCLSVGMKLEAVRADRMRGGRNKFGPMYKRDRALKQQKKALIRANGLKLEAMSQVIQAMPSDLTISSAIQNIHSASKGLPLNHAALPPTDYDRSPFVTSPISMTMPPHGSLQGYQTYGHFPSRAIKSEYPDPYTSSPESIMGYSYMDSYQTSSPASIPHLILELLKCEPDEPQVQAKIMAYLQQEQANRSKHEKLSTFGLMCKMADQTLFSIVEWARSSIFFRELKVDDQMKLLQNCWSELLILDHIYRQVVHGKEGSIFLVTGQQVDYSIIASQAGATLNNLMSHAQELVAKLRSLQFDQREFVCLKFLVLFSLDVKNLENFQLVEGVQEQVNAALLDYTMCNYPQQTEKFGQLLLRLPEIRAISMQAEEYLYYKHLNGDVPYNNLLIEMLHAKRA

Steroidogenic factor 1 = Steroidogenic factor 1 (Homo sapiens, UniProt Q13285); assay: Counterscreen for inverse agonists of the liver receptor homolog-1 (LRH-1; NR5A2): Luminescence-based cell-based high throughput dose response assay to identify inverse agonists of the Steroidogenic Factor 1 Nuclear Receptor (SF1; NR5A1).; type: functional
Sequence of Steroidogenic factor 1 (Q13285 whole entry): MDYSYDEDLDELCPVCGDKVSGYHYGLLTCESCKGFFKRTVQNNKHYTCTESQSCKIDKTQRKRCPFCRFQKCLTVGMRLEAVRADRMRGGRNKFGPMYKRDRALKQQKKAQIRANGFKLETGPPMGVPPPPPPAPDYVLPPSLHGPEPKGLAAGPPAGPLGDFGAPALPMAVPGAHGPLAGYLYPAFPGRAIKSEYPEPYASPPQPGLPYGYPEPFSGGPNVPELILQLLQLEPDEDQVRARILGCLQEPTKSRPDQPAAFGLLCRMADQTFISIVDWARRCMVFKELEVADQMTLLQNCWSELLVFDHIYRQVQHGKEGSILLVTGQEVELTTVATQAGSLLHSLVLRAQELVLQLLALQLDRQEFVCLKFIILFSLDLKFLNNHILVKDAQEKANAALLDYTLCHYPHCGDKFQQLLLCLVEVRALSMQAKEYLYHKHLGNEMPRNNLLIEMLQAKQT

[11] = loss of viability in HepG2 cells – cell-based, CellTiter-Glo, cherry-picked, cytotoxicity control for Shn3 inhibitor project, dose response (AID 624134); type: functional
[12] = reduction of Shn3 3'UTR-driven luciferase in osteoblasts – cell-based, Clone20 osteoblasts, firefly luciferase, cherry-picked, dose response (AID 624132); type: functional;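 further: firefly luciferase luminescence from reporter carrying the Shn3 3'UTR in osteoblasts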
[13] = non-specific 3'UTR reporter inhibition in Clone20-Shn3RL – cell-based, Renilla luciferase, cherry-picked, counter-screen for Shn3 inhibitor project, dose response (AID 624133); type: functional
[14] = Dd2 malaria parasite growth inhibition potency – SYBR Green, dry powder samples, dose response (AID 1159566); type: functional, cell-based;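 further: potency for growth inhibition with lower SYBR green DNA signal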
[15] = growth inhibition of yeast DHODH-expressing 3D7 parasites – SYBR Green, dry powder samples, dose response (AID 1159570); type: functional, cell-based;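 further: parasite growth measured after 72 hours of compound exposure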
[16] = growth inhibition of PfATP4-mutant resistant parasites – NITD609-resistant line, SYBR Green, dry powder, dose response (AID 1159571); type: functional, cell-based;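 further: parasites synchronized at ring stage by sorbitol before testing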
[17] = toxicity to human HepG2 hepatoma cells – cell-based, plate reader, dry powder samples, cytotoxicity control, dose response (AID 1159569); type: functional;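 further: inhibitor potency with signal falling toward the positive control level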
[18] = P. falciparum Dd2 growth inhibitors, dose response, SYBR Green, cherry-picked samples (AID 1159567); type: functional, cell-based
Protein Tat = molecular target: T2, Protein Tat (Human immunodeficiency virus type 1 group M subtype B (isolate HXB2)(HIV-1), UniProt P04608); type: functional;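 further: tat binding to TAR RNA read out by fluorescence polarization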
T2 sequence (P04608 whole entry): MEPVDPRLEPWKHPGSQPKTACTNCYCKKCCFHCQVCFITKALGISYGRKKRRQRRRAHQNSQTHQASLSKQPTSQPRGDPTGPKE

[19] = viability loss in THP-1 monocytes – THP-1 cells, cytotoxicity control for Vif-APOBEC3G degradation inhibitor project, dose response (AID 1117359); type: functional; settings: THP-1
Caspase-6 = molecular target: T3, Caspase-6 (Homo sapiens, UniProt P55212); assay: inhibition of CASP6 peptide cleavage – biochemical, VEID-R110 fluorescence, cherry-pick, dose response (AID 720632)
T3 sequence (P55212 whole entry): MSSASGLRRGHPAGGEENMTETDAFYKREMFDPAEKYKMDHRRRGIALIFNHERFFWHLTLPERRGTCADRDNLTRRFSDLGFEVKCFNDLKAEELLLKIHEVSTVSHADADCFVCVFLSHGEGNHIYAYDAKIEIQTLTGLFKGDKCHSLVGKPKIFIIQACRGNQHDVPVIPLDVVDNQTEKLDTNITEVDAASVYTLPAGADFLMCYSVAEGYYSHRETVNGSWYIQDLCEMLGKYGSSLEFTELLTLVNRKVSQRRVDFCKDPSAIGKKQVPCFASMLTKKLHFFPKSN

[20] = molecular target: T4, Heat shock factor protein 1 (Mus musculus, UniProt P38532); assay: decrease of HSF1-responsive luciferase luminescence – cell-based, NIH3T3, dose retest, confirmation (AID 2382); type: functional;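 further: NIH3T3 fibroblasts with HSF1-driven luciferase reporter stressed by proteasome inhibitor MG132; luminescence from HSF1-driven luciferase expression after 8 hours of MG132 stress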
T4 sequence (P38532 whole entry): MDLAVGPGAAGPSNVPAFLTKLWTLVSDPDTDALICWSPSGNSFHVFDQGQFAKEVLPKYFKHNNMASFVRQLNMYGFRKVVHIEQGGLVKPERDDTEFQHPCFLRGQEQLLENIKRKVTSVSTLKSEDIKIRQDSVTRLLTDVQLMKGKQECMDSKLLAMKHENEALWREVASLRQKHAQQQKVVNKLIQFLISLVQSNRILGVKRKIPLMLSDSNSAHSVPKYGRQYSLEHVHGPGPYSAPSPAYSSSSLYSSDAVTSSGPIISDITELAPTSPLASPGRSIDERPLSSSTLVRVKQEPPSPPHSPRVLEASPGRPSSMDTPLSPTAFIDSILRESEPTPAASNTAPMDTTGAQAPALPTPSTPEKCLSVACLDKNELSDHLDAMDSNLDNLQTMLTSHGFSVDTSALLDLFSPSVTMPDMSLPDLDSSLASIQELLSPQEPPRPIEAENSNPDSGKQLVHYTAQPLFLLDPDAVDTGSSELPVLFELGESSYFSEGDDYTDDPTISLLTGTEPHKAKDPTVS

Paired box protein Pax-8 = Paired box protein Pax-8 (Homo sapiens, UniProt Q06710); assay: PAX8 transcriptional activity inhibition in RMG-I – RMG-I cells, luciferase, cherry-pick, dose response (AID 687027); type: functional, cell-based;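 further: luciferase reporter driven by Pax8 target thyroperoxidase promoter measured by SteadyGlo luminescence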
Sequence of Paired box protein Pax-8 (Q06710 whole entry): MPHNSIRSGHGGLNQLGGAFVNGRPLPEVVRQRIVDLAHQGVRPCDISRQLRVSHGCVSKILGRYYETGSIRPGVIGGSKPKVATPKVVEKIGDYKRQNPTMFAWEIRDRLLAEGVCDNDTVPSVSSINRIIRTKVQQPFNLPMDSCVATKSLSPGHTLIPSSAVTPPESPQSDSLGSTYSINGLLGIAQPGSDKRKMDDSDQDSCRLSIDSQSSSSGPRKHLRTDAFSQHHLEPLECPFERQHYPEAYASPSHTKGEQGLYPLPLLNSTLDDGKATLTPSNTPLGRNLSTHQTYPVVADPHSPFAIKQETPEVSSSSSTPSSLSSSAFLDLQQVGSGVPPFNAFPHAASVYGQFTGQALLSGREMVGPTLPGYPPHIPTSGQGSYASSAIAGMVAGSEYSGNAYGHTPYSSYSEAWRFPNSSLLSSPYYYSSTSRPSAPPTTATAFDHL

## CN(Cc1ccccc1)S(=O)(=O)c1ccc2ncc(C(=O)NCC3CCCO3)c(O)c2c1 (stereo unspecified)
[1]
  IC50: 15.2 µM (active)

## CCN(C(=O)CN1C(=O)NC(c2ccccc2)(c2ccc(C)c(C)c2)C1=O)C1CCCCC1 (stereo unspecified)
[2]
  IC50: > 80 µM (inactive)

## O=C(Nc1nc(-c2ccccn2)cs1)c1ccc(-c2ccccc2F)o1
H9c2
  IC50: > 79 µM (inactive)
[3]
  AC50: 6.54 µM (active)

## Fc1ccc(C2=Nn3c(nnc3-c3[nH]nc4c3CCC4)SC2)cc1
[2]
  IC50: > 80 µM (inactive)

## C[N+]1(CC(=O)OCCCc2ccccc2)CCCCC1
[4]
  IC50: 2.1 µM (active)
[5]
  IC50: 2.42 µM (active)

## COc1ccc(C(CCNCc2ccc(OC(C)C)cc2)C(C)C)cc1 (stereo unspecified)
[6]
  CC50: 13.6 µM (active)
[7]
  CC50: 13.7 µM (active)
cells
  IC50: 23 µM (active)
[8]
  CC50: 23.1 µM (active)

## CC(C)(C)S(=O)(=O)/C(C#N)=N/Nc1ccc(C#N)cc1
[1]
  IC50: 12 µM (active)

## CC(=O)Nc1ccc2c(COC(=O)CC3Sc4ccccc4NC3=O)cc(=O)oc2c1 (stereo unspecified)
[4]
  IC50: 19.3 µM (active)
[5]
  IC50: 30.7 µM (active)

## Cc1cc(OCC(=O)N2CCC(O)CC2)c2c(C)cc(=O)oc2c1
[9]
  IC50: 35.9 µM (inactive)
[10]
  IC50: 19 µM (inactive)
Steroidogenic factor 1
  IC50: 11.2 µM (inactive)

## Cc1cc(C)c2nc(NC(=O)c3ccc([N+](=O)[O-])o3)sc2c1
[9]
  IC50: 35.9 µM (inactive)
[10]
  IC50: 35.9 µM (inactive)
Steroidogenic factor 1
  IC50: 0.148 µM (active)

## NS(=O)(=O)c1ccc(CCNCc2cc(Cl)ccc2OCc2ccccc2)cc1
[11]
  AC50: 46.9 µM (active)
[12]
  AC50: 4.46 µM (active)
[13]
  AC50: 7.31 µM (active)

## N#C[C@@H]1[C@H](c2ccc(C3=CCCCC3)cc2)[C@H](CO)N1C(=O)NC1CCCC1
[14]
  AC50: 0.923 µM (active)
[15]
  AC50: 5.81 µM (active)
[16]
  AC50: 1.41 µM (active)
[17]
  AC50: 0.338 µM (active)
[18]
  AC50: 1.96 µM (active)

## CCOC(=O)c1nn(-c2ccc(Cl)cc2Cl)c(=N)c(C#N)c1C
Protein Tat
  IC50: > 100 µM (active)

## CCC(c1nnnn1Cc1ccco1)N(Cc1ccccc1OC)Cc1cc2cc(C)ccc2nc1O (stereo unspecified)
[19]
  CC50: > 40 µM (active)
Protein Tat
  IC50: > 100 µM (inconclusive)

## CCC(=O)N1CCC2(CC1)CN(Cc1cccc(OC)c1)[C@@H](CO)c1[nH]c3cc(OC)ccc3c12
[14]
  AC50: 2.21 µM (active)
[15]
  AC50: 2.56 µM (active)
[16]
  AC50: 1.92 µM (active)
[17]
  AC50: 97.6 µM (active)
[18]
  AC50: 2.63 µM (active)

## CC[n+]1c(C)n(Cc2ccccc2)c2ccc(Cl)cc21
[4]
  IC50: 1.39 µM (active)
[5]
  IC50: 2.27 µM (active)

## CCN(CC)C(=O)Cn1c(C)c(/C=C/c2cc[n+](C)cc2)c2ccccc21
[4]
  IC50: 2.08 µM (active)
[5]
  IC50: 4.08 µM (active)

## CC(C)OC(=O)c1ccc(NCc2cc(O)ccc2O)cc1
[11]
  AC50: 7.81 µM (active)
[12]
  AC50: 1.9 µM (active)
[3]
  AC50: 25 µM (active)
[13]
  AC50: 5.28 µM (active)

## O=C(COC(=O)c1ccc([N+](=O)[O-])o1)NCCc1ccccc1
Caspase-6
  AC50: 42.2 µM (active)

## Cc1cc(C)c2c(O)nc(SCC(=O)Nc3ccc(Br)cc3)nc2n1
[9]
  IC50: 35.9 µM (inactive)
[10]
  IC50: 28.2 µM (inactive)
Steroidogenic factor 1
  IC50: 33.4 µM (inactive)

## C[C@H]1CN([C@@H](C)CO)C(=O)c2cc(NC(=O)Nc3cccc4ccccc34)ccc2O[C@H]1CN(C)C(=O)Nc1ccc(C(F)(F)F)cc1
[14]
  AC50: 1.5 µM (active)
[15]
  AC50: 1.86 µM (active)
[16]
  AC50: 3.76 µM (active)
[17]
  AC50: > 100 µM (inactive)
[18]
  AC50: 2.37 µM (active)

## O=C(NCc1ccco1)c1nn(-c2ccccc2)c(=O)c2ccccc12
[9]
  IC50: 12 µM (inactive)
[10]
  IC50: 35.9 µM (inactive)
Steroidogenic factor 1
  IC50: 3.09 µM (active)

## CC(C)CCC[C@@H](C)[C@H]1CC[C@H]2[C@@H]3C(=O)C=C4C[C@@H](O)CC[C@]4(C)[C@H]3CC[C@]12C [7-OXOCHOLESTEROL]
[8]
  CC50: > 40 µM (active)

## Cc1cc(C)cc(OCC(=O)N2N=C(C(F)(F)F)CC2(O)C(C)(C)C)c1 (stereo unspecified)
[4]
  IC50: 4.6 µM (active)
[5]
  IC50: 5.91 µM (active)

## CC(NC(=O)CN1c2cccc3cccc(c23)S1(=O)=O)c1ccc(S(N)(=O)=O)cc1 (stereo unspecified)
Caspase-6
  AC50: 22.4 µM (active)

## Cc1ccc(-c2cc(C(=O)NCCCN3CCOCC3)no2)cc1
[20]
  EC50: 19.1 µM (active)
[2]
  IC50: > 80 µM (inactive)

## O=C(Nc1ccccc1F)N1CCCCN2[C@@H](CO)[C@@H](c3ccc(C#Cc4cccnc4)cc3)[C@@H]2C1
[14]
  AC50: 0.95 µM (active)
[15]
  AC50: 1.95 µM (active)
[16]
  AC50: 1.35 µM (active)
[17]
  AC50: 42.6 µM (active)
[18]
  AC50: 1.33 µM (active)

## CCCCCCN1C[C@@H](n2cc(-c3ccc(F)cc3)nn2)[C@H](O)C[C@@H]1c1ccc(Cl)cc1
[11]
  AC50: 41.6 µM (active)
[12]
  AC50: 12.5 µM (active)
Paired box protein Pax-8
  AC50: 9.71 µM (active)
[13]
  AC50: 21.5 µM (active)
